Experimental data reported in US11505548B2, “Heterocyclic compounds and their use for treatment of helminthic infections and diseases” (Celgene Corporation, priority 2019, dated 2022).

System: microfilariae of Dirofilaria immitis
Assay: Dirofilaria immitis, Microfilaria (DiMF) Assay
Format: cell-based
Conditions: read-out: D. immitis activity level (IC50 or MED)
Method: Heartworm Screen Dirofilaria immitis (D. immitis)
Dirofilaria immitis, Microfilaria (DiMF) Assay.
Compounds were dissolved and serially diluted in DMSO. Aliquots were spotted to the empty wells of assay plates. Media and microfilariae of Dirofilaria immitis were added to each well to dilute the test compounds to the desired concentrations. Assay plates were incubated for approximately 72 hours, and the larvae in each well were observed microscopically for drug effect. Microfilariae in each well were assessed subjectively for survival or paralysis, and results were reported as Minimum Effective Dose (MED).
Active and selective (DiL4 vs. DiMF potency) example compounds were subsequently evaluated in heartworm positive dog studies to correlate the in vitro selectivity profile with in vivo effects on circulating microfilariae.

Compound | IC50 [µM]
Cc1cccnc1Nc1nc(-c2ccc(OC(F)(F)F)cn2)ns1 [Compound 52, N-(3-methyl-pyridin-2-yl)-3-(5-(trifluoro-methoxy)pyridin-2-yl)-1,2,4-thiadiazol-5-amine] | 0.5 to 5
Cc1ccnc(Nc2nnc(-c3ncccc3C)[nH]2)c1 [Compound 242, 4-methyl-N-(5-(3-methyl-pyridin-2-yl)-4H-1,2,4-triazol-3-yl)pyridin-2-amine] | 0.2 to 0.5
CNc1cccnc1Nc1nc(-c2ccc(OC(C)C)cn2)ns1 [Compound 108, N2-(3-(5-isopropoxypyridin-2-yl)-1,2,4-thiadiazol-5-yl)-N3-methyl-pyridine-2,3-diamine] | 0.2 to 0.5
CC(=O)N(C)c1cccnc1Nc1nc(-c2cc3c(cn2)N(C(C)C)CC3)ns1 [Compound 206, N-(2-(3-(1-isopropyl-2,3-dihydro-1H-pyrrolo[2,3-c]pyridin-5-yl)-1,2,4-thiadiazol-5-ylamino)pyridin-3-yl)-N-methylacetamide] | < 0.2
CC(C)Oc1ccc(-c2nsc(Nc3ncccc3C(=O)N(C)C)n2)nc1 [Compound 188, 2-(3-(5-isoprop-oxypyridin-2-yl)-1,2,4-thiadiazol-5-ylamino)-N,N-dimethyl nicotinamide] | 0.5 to 5
COc1ccc(-c2nnc(Nc3cc(OC(C)C)ccn3)[nH]2)nc1 [Compound 257, 4-isopropoxy-N-(5-(5-methoxy-pyridin-2-yl)-4H-1,2,4-triazol-3-yl)pyridin-2-amine] | 0.5 to 5
CC(C)Oc1ccc(-c2nsc(Nc3ncccc3N3CCCC3)n2)nc1 [Compound 116, 3-(5-isopropoxy-pyridin-2-yl)-N-(3-(pyrrolidin-1-yl)pyridin-2-yl)-1,2,4-thiadiazol-5-amine] | 0.5 to 5
COC(=O)c1cc(-c2nsc(Nc3ncccc3C(C)C)n2)ncc1OC(C)C [Compound 197, methyl 5-isopropoxy-2-(5-(3-isopropylpyridin-2-ylamino)-1,2,4-thiadiazol-3-yl)isonicotinate] | < 0.2
Cc1cccnc1Nc1nc(-c2ccc(OC3CC3)cn2)ns1 [Compound 38, 3-(5-cyclo-propoxypyridin-2-yl)-N-(3-methyl-pyridin-2-yl)-1,2,4-thiadiazol-5-amine] | 0.2 to 0.5
Cc1cccnc1Nc1nc(-c2cc(C(F)(F)F)c(OCC3CC3)cn2)ns1 [Compound 110, 3-(5-(cyclo-propylmethoxy)-4-(trifluoromethyl)pyridin-2-yl)-N-(3-methyl-pyridin-2-yl)-1,2,4-thiadiazol-5-amine] | 0.2 to 0.5
CC(C)Oc1cnc(-c2nsc(Nc3ncccc3C(C)C)n2)cc1C(F)(F)F [Compound 168, 3-(5-isoprop-oxy-4-(trifluoromethyl)pyridin-2-yl)-N-(3-isopropyl-pyridin-2-yl)-1,2,4-thiadiazol-5-amine] | 0.2 to 0.5
CC(C)Oc1cnc(-c2nsc(Nc3ncc(C(C)C)cc3C(F)(F)F)n2)cc1C(N)=O [Compound 221, 5-isopropoxy-2-(5-(5-isopropyl-3-(trifluoromethyl)pyridin-2-ylamino)-1,2,4-thiadiazol-3-yl)iso-nicotinamide] | 0.2 to 0.5
CC(=O)N(C)c1cccnc1Nc1nc(-c2ccc(NC34CC(C3)C4)cn2)ns1 [Compound 207, N-(2-(3-(5-(bicyclo [1.1.1]pentan-1-ylamino)pyridin-2-yl)-1,2,4-thiadiazol-5-ylamino)pyridin-3-yl)-N-methylacetamide] | 0.5 to 5
CC(=O)N(C)c1cc(C(F)(F)F)cnc1Nc1nc(-c2ccc(OC(C)C)cn2)ns1 [Compound 247, N-(2-(3-(5-isopropoxy-pyridin-2-yl)-1,2,4-thiadiazol-5-ylamino)-5-(trifluoro-methyl)pyridin-3-yl)-N-methylacetamide] | < 0.2
CC(C)Oc1ccc(-c2nsc(Nc3ncccc3N(C)C(=O)C3CCC3)n2)nc1 [Compound 171, N-(2-(3-(5-isopropoxy-pyridin-2-yl)-1,2,4-thiadiazol-5-ylamino)pyridin-3-yl)-N-methylcyclo-butane-carboxamide] | 0.5 to 5
CC(C)Oc1cnc(-c2nsc(Nc3ncccc3N3CCCC3=O)n2)cc1C(F)(F)F [Compound 179, 1-(2-(3-(5-isopropoxy-4-(trifluoromethyl)pyridin-2-yl)-1,2,4-thiadiazol-5-ylamino)pyridin-3-yl)pyrrolidin-2-one] | 0.5 to 5
CC(C)c1cccnc1Nc1nc(-c2ccc(OC(F)F)cn2)ns1 [Compound 127, 3-(5-(difluoro-methoxy)pyridin-2-yl)-N-(3-isopropyl-pyridin-2-yl)-1,2,4-thiadiazol-5-amine] | 0.5 to 5
CC(C)c1cccnc1Nc1nc(-c2ccc(OC3CCN(C4CC4)CC3(F)F)cn2)ns1 (stereo not shown) [Compound 87, 3-(5-(1-cyclo-propyl-3,3-difluoro-piperidin-4-yloxy)pyridin-2-yl)-N-(3-isopropylpyridin-2-yl)-1,2,4-thiadiazol-5-amine] | 0.2 to 0.5
CC(C)Oc1cnc(-c2nsc(Nc3ncccc3C(F)(F)F)n2)cc1C(=O)N(C)C [Compound 218, 5-isopropoxy-N,N-dimethyl-2-(5-(3-(trifluoromethyl)pyridin-2-ylamino)-1,2,4-thiadiazol-3-yl)isonico-tinamide] | 0.5 to 5
COc1ccc(-c2nsc(Nc3ccc(C4CCCC4)cn3)n2)nc1 [Compound 68, N-(5-cyclopentyl-pyridin-2-yl)-3-(5-methoxypyridin-2-yl)-1,2,4-thiadiazol-5-amine] | 0.5 to 5
Cc1cccnc1Nc1nc(-c2cc(OC(C)C)c(C(F)(F)F)cn2)ns1 [Compound 152, 3-(4-isoprop-oxy-5-(trifluoromethyl)pyridin-2-yl)-N-(3-methylpyridin-2-yl)-1,2,4-thia-diazol-5-amine] | 0.2 to 0.5
FC(F)(F)c1cccnc1Nc1nc(-c2cc(C3CC3)ccn2)ns1 [Compound 84, 3-(4-cyclopropyl-pyridin-2-yl)-N-(3-(trifluoromethyl)pyridin-2-yl)-1,2,4-thiadiazol-5-amine] | < 0.2
CC(=O)N(C)c1cccnc1Nc1nc(-c2cc(C(C)C)ccn2)ns1 [Compound 216, N-(2-(3-(4-iso-propylpyridin-2-yl)-1,2,4-thiadiazol-5-ylamino)pyridin-3-yl)-N-methyl-acetamide] | 0.2 to 0.5
c1ccc(-c2ccnc(Nc3nnc(-c4ccccn4)[nH]3)c2)cc1 [Compound 241, 4-phenyl-N-(5-(pyridin-2-yl)-4H-1,2,4-triazol-3-yl) pyridin-2-amine] | 0.2 to 0.5
COC(=O)c1cc(-c2nsc(Nc3ncccc3C)n2)ncc1OC(C)C [Compound 196, methyl 5-isopropoxy-2-(5-(3-methylpyridin-2-ylamino)-1,2,4-thiadiazol-3-yl)isonicotinate] | 0.2 to 0.5
CC(C)c1cnc(Nc2nc(-c3ccc(OC4CC4)cn3)ns2)cc1C(F)(F)F [Compound 95, 3-(5-cyclopropoxy-pyridin-2-yl)-N-(5-isopropyl-4-(trifluoromethyl)pyridin-2-yl)-1,2,4-thiadiazol-5-amine] | < 0.2
Cc1nccnc1Nc1nc(-c2ccc(OC(C)C)cn2)ns1 [Compound 135, 3-(5-isoprop-oxypyridin-2-yl)-N-(3-methyl-pyrazin-2-yl)-1,2,4-thia-diazol-5-amine] | 0.2 to 0.5
CC(=O)N(C)c1cccnc1Nc1nc(-c2cc3c(cn2)OC(C)(C)C3)ns1 [Compound 271, N-(2-(3-(2,2-dimethyl-2,3-dihydrofuro [2,3-c]pyridin-5-yl)-1,2,4-thiadiazol-5-ylamino)pyridin-3-yl)-N-methylacetamide] | 0.5 to 5
